Results published in patent publication US8236937B2, “Methods and compositions for the detection and isolation of ligands” (InDanio Bioscience Inc., priority 2005, dated 2012).

Legend:
[1] = system: fish glucocorticoid receptor (GR); conditions: agonist; cited from earlier work
[2] = molecular target: T1, GAL4-DHR96 (Drosophila hormone receptor 96) fusion protein (Drosophila melanogaster, UniProt Q24143); assay: Ligand trap GFP reporter screen in transgenic Drosophila embryos (GAL4-DHR96, UAS-GFP); type: in vivo; conditions: 10^−5 molar vs control media, FIG. 7 panel A
T1 construct: expressed in transfected cells; host or cells: transgenic Drosophila embryos carrying GAL4-DHR96 and a UAS-GFP reporter
T1 sequence (Q24143 483-723 limits assumed): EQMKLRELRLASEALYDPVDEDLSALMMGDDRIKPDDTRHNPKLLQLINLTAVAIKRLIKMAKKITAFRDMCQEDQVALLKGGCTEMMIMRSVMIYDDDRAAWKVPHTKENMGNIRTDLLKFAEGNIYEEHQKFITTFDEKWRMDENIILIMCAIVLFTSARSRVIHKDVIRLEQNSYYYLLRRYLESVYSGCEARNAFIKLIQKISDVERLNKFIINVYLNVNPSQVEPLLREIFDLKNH
From the text: CITCO is a component of a small molecule library used to screen for novel DHR96 ligands.

Compound | Transcriptional activity of fish GR in the presence of ligand [1] | GFP reporter activation / ligand activity at DHR96 [2]
C[C@]12CCC(=O)C=C1CC[C@@H]1[C@@H]2[C@@H](O)C[C@@]2(C)[C@H]1CC[C@]2(O)C(=O)CO [cortisol] | able to induce transcriptional activity | –
Clc1ccc(-c2nc3sccn3c2/C=N/OCc2ccc(Cl)c(Cl)c2)cc1 [CITCO] | – | first example of a DHR96-specific ligand
